From paper PMC6600574 (Molecules, 2019)
“Also recorded” adds a separate entry of the source.

Legend:
[1] = design: method as in Chen et al. (2012) [15]; settings: DPPH in methanol; ref Chen et al. (2012) [15]; cited from earlier work
recombinant CYP 2C19 = target: T1, recombinant CYP 2C19 (Homo sapiens, UniProt P33261); experiment: Inhibition of recombinant CYP oxidation (fluorescent coumarin substrate); type: in vitro ADME; settings: CYP 2C19, substrate TFD032, 5 nM recombinant CYP, verbascoside 0.4-50 µM
T1 construct: purchased BD Biosciences Discovery Labware (Bedford, MA, USA)
T1 sequence (P33261 whole entry): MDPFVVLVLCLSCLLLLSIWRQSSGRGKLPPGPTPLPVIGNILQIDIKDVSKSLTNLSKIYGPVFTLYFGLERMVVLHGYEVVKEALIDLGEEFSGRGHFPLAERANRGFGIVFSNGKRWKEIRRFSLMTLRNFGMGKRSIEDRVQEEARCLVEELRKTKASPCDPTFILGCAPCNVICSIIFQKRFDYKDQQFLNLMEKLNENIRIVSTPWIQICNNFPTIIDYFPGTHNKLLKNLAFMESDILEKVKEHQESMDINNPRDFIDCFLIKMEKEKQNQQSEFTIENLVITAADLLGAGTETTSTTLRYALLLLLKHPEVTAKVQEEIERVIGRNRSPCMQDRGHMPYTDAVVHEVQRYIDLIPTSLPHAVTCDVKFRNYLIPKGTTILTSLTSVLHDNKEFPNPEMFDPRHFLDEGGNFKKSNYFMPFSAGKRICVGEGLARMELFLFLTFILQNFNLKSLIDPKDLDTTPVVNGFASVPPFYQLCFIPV
Protocol: (§1) Incubations were carried out in a total volume of 100 µl of 100 mM Tris-HCl buffer (pH 7.4) in all black, flat-bottom Costar 96-well plates (Corning Incorporated, Corning, NY, USA). […] The samples were then preincubated at 37 °C for 10 min. The reactions were initiated by the addition of NADPH, and 0–10 µM 7-hydroxycoumarin was used as the standard. The fluorescent signal was measured with a Victor^2 1420 multilabel plate counter (PerkinElmer Lifesciences Wallac, Turku, Finland) with excitation and emission wavelengths of 405 and 460 nm, respectively. Fluorescence was monitored every 2 min for 40 min from where the concentration was calculated at the various time points. From these, oxidation rates (µM/min) and the relative remaining activity of the sample at different concentrations were calculated. The data were fit to sigmoidal dose-response curves with nonlinear regression, and IC50 values (the concentration at which the sample reduced the metabolism of the CYP substrate by 50%) were determined. […] This was analyzed using nonlinear equations in Graph Pad Prism, which produced IC50 values and its 95% confidence interval as the results.

recombinant CYP 2A6 = target: T2, recombinant CYP 2A6 (Homo sapiens, UniProt P11509); experiment: as above; type: in vitro ADME; settings: CYP 2A6, substrate coumarin, 5 nM recombinant CYP, verbascoside 0.4-50 µM
T2 construct: purchased BD Biosciences Discovery Labware (Bedford, MA, USA)
T2 sequence (P11509 1-494): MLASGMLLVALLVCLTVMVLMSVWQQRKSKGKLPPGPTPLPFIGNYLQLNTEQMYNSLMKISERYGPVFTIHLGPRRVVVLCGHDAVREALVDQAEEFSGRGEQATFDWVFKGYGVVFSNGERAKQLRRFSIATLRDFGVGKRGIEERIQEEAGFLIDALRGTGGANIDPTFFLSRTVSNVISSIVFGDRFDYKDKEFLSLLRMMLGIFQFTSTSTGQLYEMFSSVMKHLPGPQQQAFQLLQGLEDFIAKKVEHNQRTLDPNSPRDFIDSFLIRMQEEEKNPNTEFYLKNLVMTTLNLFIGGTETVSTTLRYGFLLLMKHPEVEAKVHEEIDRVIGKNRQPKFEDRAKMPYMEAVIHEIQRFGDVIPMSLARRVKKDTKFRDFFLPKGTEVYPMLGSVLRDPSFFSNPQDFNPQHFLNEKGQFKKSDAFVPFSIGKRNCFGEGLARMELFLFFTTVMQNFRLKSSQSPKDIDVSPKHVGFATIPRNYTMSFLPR
Protocol: as §1

CYP1B1 = target: T3, CYP1B1 (Homo sapiens, UniProt Q16678); experiment: as above; type: in vitro ADME; settings: read-out: Recombinant CYP IC50 (µM) with 95% confidence intervals
T3 construct: purchased BD Biosciences Discovery Labware (Bedford, MA, USA)
T3 sequence (Q16678 1-543): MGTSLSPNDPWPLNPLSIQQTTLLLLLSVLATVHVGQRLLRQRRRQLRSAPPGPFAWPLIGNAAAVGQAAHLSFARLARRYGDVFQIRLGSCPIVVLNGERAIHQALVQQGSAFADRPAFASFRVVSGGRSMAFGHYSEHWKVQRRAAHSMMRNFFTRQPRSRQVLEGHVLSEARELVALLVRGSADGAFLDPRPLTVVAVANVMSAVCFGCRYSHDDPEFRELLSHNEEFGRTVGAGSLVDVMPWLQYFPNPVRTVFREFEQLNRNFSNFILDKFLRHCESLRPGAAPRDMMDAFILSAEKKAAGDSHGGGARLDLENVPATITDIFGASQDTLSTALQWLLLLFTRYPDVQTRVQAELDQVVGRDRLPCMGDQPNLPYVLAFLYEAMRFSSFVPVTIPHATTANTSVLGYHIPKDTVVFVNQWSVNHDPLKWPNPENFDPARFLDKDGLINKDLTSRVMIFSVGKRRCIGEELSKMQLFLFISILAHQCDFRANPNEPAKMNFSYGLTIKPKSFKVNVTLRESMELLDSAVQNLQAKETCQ
Protocol: as §1

CYP2D6 = target: T4, CYP2D6 (Homo sapiens, UniProt P10635); experiment: as above; type: in vitro ADME; settings: read-out: Recombinant CYP IC50 (µM) with 95% confidence intervals
T4 construct: purchased BD Biosciences Discovery Labware (Bedford, MA, USA)
T4 sequence (P10635 whole entry): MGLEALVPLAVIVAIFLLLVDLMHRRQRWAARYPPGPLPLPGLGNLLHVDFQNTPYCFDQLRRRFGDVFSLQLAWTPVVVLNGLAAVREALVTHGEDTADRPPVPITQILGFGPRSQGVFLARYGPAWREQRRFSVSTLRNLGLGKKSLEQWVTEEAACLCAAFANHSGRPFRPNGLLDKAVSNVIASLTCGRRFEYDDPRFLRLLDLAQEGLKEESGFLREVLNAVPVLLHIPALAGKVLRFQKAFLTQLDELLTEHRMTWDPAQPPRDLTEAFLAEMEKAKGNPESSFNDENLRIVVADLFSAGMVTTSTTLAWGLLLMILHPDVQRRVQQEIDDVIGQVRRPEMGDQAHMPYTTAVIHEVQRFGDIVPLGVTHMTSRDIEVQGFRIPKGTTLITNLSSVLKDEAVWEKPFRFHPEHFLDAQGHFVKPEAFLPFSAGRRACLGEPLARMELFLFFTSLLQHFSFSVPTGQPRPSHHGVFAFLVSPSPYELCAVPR
Protocol: as §1

CYP1A2 = target: T5, CYP1A2 (Homo sapiens, UniProt P05177); experiment: as above; type: in vitro ADME; settings: read-out: Recombinant CYP IC50 (µM) with 95% confidence intervals
T5 construct: purchased BD Biosciences Discovery Labware (Bedford, MA, USA)
T5 sequence (P05177 whole entry): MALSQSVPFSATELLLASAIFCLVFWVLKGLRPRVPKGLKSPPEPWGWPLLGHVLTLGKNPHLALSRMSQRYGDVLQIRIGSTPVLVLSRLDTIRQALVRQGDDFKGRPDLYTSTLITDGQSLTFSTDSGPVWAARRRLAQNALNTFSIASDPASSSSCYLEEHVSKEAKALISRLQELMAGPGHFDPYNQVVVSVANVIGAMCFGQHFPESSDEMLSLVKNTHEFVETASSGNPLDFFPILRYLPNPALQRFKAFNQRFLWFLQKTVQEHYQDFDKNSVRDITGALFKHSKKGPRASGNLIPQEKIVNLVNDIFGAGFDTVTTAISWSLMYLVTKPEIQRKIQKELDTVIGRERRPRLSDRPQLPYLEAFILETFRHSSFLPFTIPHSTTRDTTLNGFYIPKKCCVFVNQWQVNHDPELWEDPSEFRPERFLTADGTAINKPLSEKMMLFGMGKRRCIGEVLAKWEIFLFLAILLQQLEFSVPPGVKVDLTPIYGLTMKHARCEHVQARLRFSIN
Protocol: as §1

[2] = system: recombinant human UGT1A7, 1A10, and UGT1A8; experiment: Glucuronidation by recombinant human UGTs; type: in vitro ADME; settings: incubation with recombinant human UGT1A7, 1A10 and UGT1A8
[3] = target: T6, CYP 2C19 (liver microsomes) (Homo sapiens, UniProt P33261); experiment: Inhibition of hepatic microsome-catalyzed CYP oxidation; type: in vitro ADME; settings: CYP 2C19, substrate TFD032, liver microsomes
T6 construct: from tissue; host or cells: human liver microsomes
T6 sequence (P33261 whole entry): as the sequence (P33261 whole entry) above
Protocol: as §1

[4] = target: T7, CYP 1A2 (liver microsomes) (Homo sapiens, UniProt P05177); experiment: as above; type: in vitro ADME; settings: CYP 1A2, substrate OCA349, liver microsomes; read-out: Microsomal IC50 (µM) with 95% Confidence Intervals
T7 construct: from tissue; host or cells: human liver microsomes
T7 sequence (P05177 whole entry): as the sequence (P05177 whole entry) above
Protocol: as §1

[5] = target: T8, CYP 3A4 (liver microsomes) (Homo sapiens, UniProt P08684); experiment: as above; type: in vitro ADME; settings: CYP 3A4, substrate OCA369, liver microsomes; read-out: Microsomal IC50 (µM) with 95% Confidence Intervals
T8 construct: from tissue; host or cells: human liver microsomes
T8 sequence (P08684 whole entry): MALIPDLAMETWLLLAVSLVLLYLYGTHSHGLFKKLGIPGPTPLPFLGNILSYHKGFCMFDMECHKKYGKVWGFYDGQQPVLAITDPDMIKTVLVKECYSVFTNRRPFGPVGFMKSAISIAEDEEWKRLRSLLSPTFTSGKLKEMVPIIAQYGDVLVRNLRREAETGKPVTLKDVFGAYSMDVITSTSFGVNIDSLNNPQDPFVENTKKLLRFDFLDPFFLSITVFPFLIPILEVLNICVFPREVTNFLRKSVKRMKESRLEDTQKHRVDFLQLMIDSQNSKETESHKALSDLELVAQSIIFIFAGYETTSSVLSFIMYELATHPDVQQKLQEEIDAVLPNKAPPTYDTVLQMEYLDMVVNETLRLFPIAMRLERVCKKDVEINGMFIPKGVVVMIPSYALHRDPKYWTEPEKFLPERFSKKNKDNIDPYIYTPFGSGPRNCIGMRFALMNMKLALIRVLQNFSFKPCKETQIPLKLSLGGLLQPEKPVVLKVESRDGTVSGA
Protocol: as §1

[6] = target: T9, CYP 2A6 (liver microsomes) (Homo sapiens, UniProt P11509); experiment: as above; type: in vitro ADME; settings: CYP 2A6, substrate coumarin, read-out: Microsomal IC50 (µM) with 95% Confidence Intervals
T9 construct: from tissue; host or cells: human liver microsomes
T9 sequence (P11509 1-494): T2 sequence (P11509 1-494)
Protocol: as §1

[7] = target: T10, CYP 2D6 (liver microsomes) (Homo sapiens, UniProt P10635); experiment: as above; type: in vitro ADME; settings: CYP 2D6, substrate TFD023, liver microsomes; read-out: Microsomal IC50 (µM) with 95% Confidence Intervals
T10 construct: from tissue; host or cells: human liver microsomes
T10 sequence (P10635 whole entry): as the sequence (P10635 whole entry) above
Protocol: as §1

Recombinant CYP IC50 (µM) with 95% confidence intervals (recombinant CYP 2C19): Stimulation ^c | Recombinant CYP IC50 (µM) with 95% confidence intervals (recombinant CYP 2A6): No inhibition | Recombinant CYP IC50 (µM) with 95% confidence intervals (recombinant CYP 2A6; listed as verbascoside): did not inhibit | IC50 at 40 min (CYP1B1; human, recombinant CYP1B1, pH 7.4, probe TFD008 1 (3-(4-phenylacetate)-6-chlorocoumarin), 10 µM): > 50 µM | IC50 (CYP1B1): 86 µM | IC50 at 40 min (CYP2D6; human, recombinant CYP2D6, pH 7.4, probe TFD023 (3-(4-phenyl)-7-methoxycoumarin), 10 µM): > 50 µM | IC50 (CYP2D6): 131 µM | IC50 at 40 min (CYP1A2; human, recombinant CYP1A2, pH 7.4): > 50 µM | IC50 (CYP1A2): 83 µM | Metabolites formed [2]: low levels of glucuronide metabolites | Microsomal IC50 (µM) with 95% Confidence Intervals [3]: Stimulation ^c | Microsomal IC50 (µM) with 95% Confidence Intervals ([3]; listed as verbascoside): weak ability to stimulate | IC50 [4]: 24 µM | IC50 [5]: 76 µM | IC50 [6]: 135 µM | IC50 [7]: 96 µM
Compound: C[C@@H]1O[C@@H](O[C@@H]2[C@@H](O)[C@H](OCCc3ccc(O)c(O)c3)O[C@H](CO)[C@H]2OC(=O)/C=C/c2ccc(O)c(O)c2)[C@H](O)[C@H](O)[C@H]1O [Verbascoside]
IC50 [1]: 11.4 µM | Recombinant CYP IC50 (µM) with 95% confidence intervals (recombinant CYP 2C19; listed as verbascoside): did not inhibit; also recorded: weak ability to stimulate
